Consider six molecules from patent US20130164792A1, “METHOD FOR PRODUCING CRYSTALS OF MUTIVALENT METAL SALT OF (2R, 4R) MONATIN” (Ajinomoto Co., Inc., priority 2011, published 2013).

The conditions of data set [1]: Patent Literature 1; cited from earlier work.
Data set [2] can be described thus: Measurement of solubility of Monatin metal salt in water. The settings on record: 1 g salt added to 1 g water, stirred at 25° C., filtrate analyzed by HPLC. It counts as physicochemical. As for the experimental part:
Solubility of a (2S,4R)Monatin potassium salt and a (2R,4R)Monatin potassium salt in water (H2O) was measured. 1 g of the (2S,4R)Monatin potassium salt or 1 g of the (2R,4R)Monatin potassium salt was added to 1 g of the water, the mixture was stirred at 25° C., a slurry was filtrated out, and the resulting filtrate was analyzed by HPLC. […] The solubility of the (2R,4R)Monatin potassium salt was higher than the solubility of the (2S,4R)Monatin potassium salt.
Then, Solubility of a (2S,4R)Monatin magnesium salt and a (2R,4R)Monatin magnesium salt in the water was measured. The solubility was measured in the same manner as above. For the (2S,4R)Monatin magnesium salt, firstly, the same amount of magnesium chloride was added to the (2S, 4R)Monatin potassium salt, and then ethanol was further added thereto. Then, the resulting slurry was filtrated and the wet crystal was dried under reduced pressure to prepare the (2S,4R)Monatin magnesium salt. For the (2R, 4R)Monatin magnesium salt, firstly, the same amount of magnesium chloride was added to the (2R,4R)Monatin potassium salt, and then methanol was further added thereto. Then, the resulting slurry was filtrated and the wet crystal was dried under reduced pressure to prepare the (2R, 4R)Monatin magnesium salt.

Data set [3] can be described thus: Isomerization reaction using (2S,4R)Monatin or (2R,4R)Monatin as substrate with purified racemase. The settings on record: 50 μM PLP, 100 mM Tris-HCl (pH 8.0), 0.72 mg/mL enzyme, 25° C., 15 minutes, 1 U = 1 μmol Monatin isomerized per minute. It counts as biochemical. As to the method:
A reaction was carried out for 15 minutes using the purified racemase under the following condition. The reaction was carried out in 0.1 mL using an Eppendorf tube. After the reaction was terminated, an equal amount of a reaction stopping solution, 200 mM sodium citrate solution (pH 4.5) was added to the sample. HPLC was used for the analysis.
Reaction condition: 20 mM (2S,4R)Monatin or (2R,4R)Monatin, 50 μM PLP, 100 mM Tris-HCl (pH 8.0), 0.72 mg/mL racemase purified enzyme, 25° C., 120 rpm.
The (2S,4R)Monatin and the (2R,4R)Monatin were quantified by HPLC analysis. An analysis condition is as shown below.
Mobile phase: 20 mM KH2PO4/acetonitrile=100/5 Flow rate: 1.0 mL/minute Column temperature: 40° C.

With `N[C@@H](C[C@@](O)(Cc1c[nH]c2ccccc12)C(=O)O)C(=O)O` (single isomer, unassigned) [(2S,4S) isomer of 4-hydroxy-4-(3-indolylmethyl)-2-aminoglutaric acid], in data set [1], the “sweetness compared with sucrose” value is on record as “several hundreds times sweeter than sucrose”.

Regarding `N[C@@H](C[C@](O)(Cc1c[nH]c2ccccc12)C(=O)O)C(=O)[O-].[K+]` [(2S,4R)Monatin potassium salt], the solubility in water in data set [2] was 20.1 % by weight.

`N[C@H](C[C@](O)(Cc1c[nH]c2ccccc12)C(=O)O)C(=O)[O-].[K+]` [(2R,4R)Monatin potassium salt]: in data set [2], the solubility in water is recorded as 37.8 % by weight.

Consider `N[C@H](C[C@](O)(Cc1c[nH]c2ccccc12)C(=O)O)C(=O)[O-].N[C@H](C[C@](O)(Cc1c[nH]c2ccccc12)C(=O)O)C(=O)[O-].[Mg+2]` [(2R,4R)Monatin magnesium salt], for which, in data set [2], the solubility in water worked out at 1.6 % by weight.

As to `N[C@@H](C[C@](O)(Cc1c[nH]c2ccccc12)C(=O)O)C(=O)[O-].N[C@@H](C[C@](O)(Cc1c[nH]c2ccccc12)C(=O)O)C(=O)[O-].[Mg+2]` [(2S,4R)Monatin magnesium salt], the solubility in water in data set [2] came out at 14.5 % by weight.

B1: Rac39: racemase (SEQ ID NO:2) with C-terminal His tag, expressed in E. coli, converts (2S,4R)Monatin into (2R,4R)Monatin (protein)
chain: MAETNLHKKINIEMHFDNLVSNFEKIRKLNNENVDVADKVIPVVKANAYNFGVYDITKTFLSMKEPQTKFFVFSLEEGIELRKFFPSIERIFVIMGALENDAELFKKYNLTPVVNSFYQLEVCKKHNIKNIVLQFNTGMNRNGFEVKELRKVKQICDSEKFNVLMVMSHFACSDNMASEVNAYQINEYKKVARVFNDKKIIKSFPATFGILNFNTINGLVNSFRPGRLYYGFLPKEGYDKNLFSVYVYLSKDKEGNIILPFGKEDGIDYGEQAYILVDKNKAYVKQVDSHKVILDTNDKTLVGKKVYLIKNGMGYDEFKEQSKQDLLTFFGKIFKNCDKNKNLCNINATRKRAKKDNKFVPKAIFKKDAKGQYTQYTTTLFEKREVSADGIVGYDATRAVKKGDKLGVIFNGHMDGFYQPMSNKHVFVYVKNKYKQLIPCEFYGLISSDQAVIKIPNDEFDNIEYGAKVVVFDKNHPITLFEQATGVSRDELFYGLDKTYRIAEQK
modifications: C-terminal His tag; Obtained from environmental sample
Consider B1, for which the “activity to form the (2S,4R)Monatin from the (2R,4R)Monatin” value in data set [3] (20 mM (2R,4R)Monatin) came to 0.09 U/mg. Further, in data set [3] (20 mM (2S,4R)Monatin), the “activity to form the (2R,4R)Monatin from the (2S,4R)Monatin” value was 0.14 U/mg.
